Measured values taken from ChEMBL document CHEMBL5303766, “Data for DCP probe FHT-2344” (2022).

Columns and labels:
[1] = target: Sodium-dependent dopamine transporter (Homo sapiens, UniProt Q01959); experiment: GPCRScan assay: inhibition of DAT; parameters: radioligand conc. used [nm] 3.6 – 16.0, parental cells stable HEK
[2] = target: AP2-associated protein kinase 1 (Homo sapiens) (UniProt Q2M2I8); experiment: AAK1 SGC Tm panel (DSF); details: for ΔTm: Compound concentration 10.0 uM
[3] = target: Death-associated protein kinase 1 (Homo sapiens) (UniProt P53355); experiment: DAPK1 SGC Tm panel (DSF); details: for ΔTm: Compound concentration 10.0 uM
Chain of Death-associated protein kinase 1 (Homo sapiens) (P53355 whole entry, looked up): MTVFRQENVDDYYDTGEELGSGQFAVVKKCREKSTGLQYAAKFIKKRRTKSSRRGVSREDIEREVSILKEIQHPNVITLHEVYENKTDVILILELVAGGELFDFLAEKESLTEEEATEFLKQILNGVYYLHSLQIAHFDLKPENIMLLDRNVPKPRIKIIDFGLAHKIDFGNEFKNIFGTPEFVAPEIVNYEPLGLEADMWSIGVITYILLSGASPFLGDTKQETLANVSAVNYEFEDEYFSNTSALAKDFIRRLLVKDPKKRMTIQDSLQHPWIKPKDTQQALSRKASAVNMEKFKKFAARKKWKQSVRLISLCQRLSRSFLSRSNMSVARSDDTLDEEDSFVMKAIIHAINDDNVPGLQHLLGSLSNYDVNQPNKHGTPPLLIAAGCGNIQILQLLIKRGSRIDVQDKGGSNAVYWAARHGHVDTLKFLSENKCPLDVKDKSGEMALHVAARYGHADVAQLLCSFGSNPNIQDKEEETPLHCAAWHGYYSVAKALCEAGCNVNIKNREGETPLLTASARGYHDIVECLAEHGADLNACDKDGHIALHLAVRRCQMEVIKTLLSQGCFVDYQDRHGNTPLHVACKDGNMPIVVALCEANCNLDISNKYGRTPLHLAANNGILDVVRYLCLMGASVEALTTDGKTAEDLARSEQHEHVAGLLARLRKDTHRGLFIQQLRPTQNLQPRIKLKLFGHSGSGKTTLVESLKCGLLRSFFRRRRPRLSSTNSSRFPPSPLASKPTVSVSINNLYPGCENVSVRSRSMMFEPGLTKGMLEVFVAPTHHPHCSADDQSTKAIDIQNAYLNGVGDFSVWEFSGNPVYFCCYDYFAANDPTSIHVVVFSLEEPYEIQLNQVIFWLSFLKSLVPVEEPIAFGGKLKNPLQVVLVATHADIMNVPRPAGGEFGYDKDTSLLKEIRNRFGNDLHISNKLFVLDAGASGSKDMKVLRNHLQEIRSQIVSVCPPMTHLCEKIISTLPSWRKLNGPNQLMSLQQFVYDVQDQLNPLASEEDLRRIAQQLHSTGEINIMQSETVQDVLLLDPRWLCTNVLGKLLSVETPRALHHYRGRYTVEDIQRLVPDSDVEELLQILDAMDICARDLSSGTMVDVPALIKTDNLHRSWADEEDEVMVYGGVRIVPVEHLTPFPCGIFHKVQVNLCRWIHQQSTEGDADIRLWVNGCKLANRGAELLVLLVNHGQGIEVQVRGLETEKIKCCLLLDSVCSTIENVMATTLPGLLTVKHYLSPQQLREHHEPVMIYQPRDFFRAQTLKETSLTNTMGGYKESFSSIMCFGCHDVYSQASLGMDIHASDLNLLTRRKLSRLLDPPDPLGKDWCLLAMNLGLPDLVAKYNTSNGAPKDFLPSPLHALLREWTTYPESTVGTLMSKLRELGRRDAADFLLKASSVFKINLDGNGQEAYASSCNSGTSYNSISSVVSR

[4] = target: T1, Dual specificity protein kinase TTK (Homo sapiens) (UniProt P33981); experiment: TTK SGC Tm panel (DSF); details: for ΔTm: Compound concentration 10.0 uM
T1 sequence (whole entry): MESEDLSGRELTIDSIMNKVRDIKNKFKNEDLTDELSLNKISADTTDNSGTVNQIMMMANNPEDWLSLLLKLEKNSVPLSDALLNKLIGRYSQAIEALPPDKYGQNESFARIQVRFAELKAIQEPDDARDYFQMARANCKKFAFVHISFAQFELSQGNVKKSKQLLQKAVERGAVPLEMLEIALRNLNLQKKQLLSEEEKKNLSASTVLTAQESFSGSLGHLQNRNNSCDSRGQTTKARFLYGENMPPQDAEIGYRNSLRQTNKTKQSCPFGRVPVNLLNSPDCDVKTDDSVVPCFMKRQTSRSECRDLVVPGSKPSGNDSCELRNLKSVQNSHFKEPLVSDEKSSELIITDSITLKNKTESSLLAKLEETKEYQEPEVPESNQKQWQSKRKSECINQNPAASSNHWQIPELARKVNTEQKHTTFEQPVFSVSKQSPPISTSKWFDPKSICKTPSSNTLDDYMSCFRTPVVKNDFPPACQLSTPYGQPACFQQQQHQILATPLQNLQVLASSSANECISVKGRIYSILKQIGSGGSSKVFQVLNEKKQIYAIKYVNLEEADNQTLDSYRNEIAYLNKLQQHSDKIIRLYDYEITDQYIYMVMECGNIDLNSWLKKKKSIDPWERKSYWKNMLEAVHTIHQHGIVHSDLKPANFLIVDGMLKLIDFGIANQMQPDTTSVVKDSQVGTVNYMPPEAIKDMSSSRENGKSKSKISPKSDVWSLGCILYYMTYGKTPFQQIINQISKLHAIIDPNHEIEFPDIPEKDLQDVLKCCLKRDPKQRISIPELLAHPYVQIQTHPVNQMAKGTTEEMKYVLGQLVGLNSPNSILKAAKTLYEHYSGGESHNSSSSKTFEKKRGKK

[5] = target: T2, Dual specificity mitogen-activated protein kinase kinase 6 (Homo sapiens) (UniProt P52564); experiment: MAP2K6 SGC Tm panel (DSF); details: for ΔTm: Compound concentration 10.0 uM
T2 sequence (whole entry): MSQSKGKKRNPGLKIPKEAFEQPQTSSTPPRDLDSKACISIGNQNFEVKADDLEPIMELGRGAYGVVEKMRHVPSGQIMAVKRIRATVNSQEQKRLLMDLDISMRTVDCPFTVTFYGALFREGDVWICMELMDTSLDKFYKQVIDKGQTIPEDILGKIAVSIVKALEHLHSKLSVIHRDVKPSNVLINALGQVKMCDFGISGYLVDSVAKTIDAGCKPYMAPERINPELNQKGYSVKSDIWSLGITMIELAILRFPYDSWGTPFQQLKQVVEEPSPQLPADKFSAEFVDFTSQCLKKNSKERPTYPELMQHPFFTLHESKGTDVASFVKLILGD

[6] = target: T3, Mitogen-activated protein kinase 13 (Homo sapiens) (UniProt O15264); experiment: MAPK13 SGC Tm panel (DSF); details: for ΔTm: Compound concentration 10.0 uM
T3 sequence (whole entry): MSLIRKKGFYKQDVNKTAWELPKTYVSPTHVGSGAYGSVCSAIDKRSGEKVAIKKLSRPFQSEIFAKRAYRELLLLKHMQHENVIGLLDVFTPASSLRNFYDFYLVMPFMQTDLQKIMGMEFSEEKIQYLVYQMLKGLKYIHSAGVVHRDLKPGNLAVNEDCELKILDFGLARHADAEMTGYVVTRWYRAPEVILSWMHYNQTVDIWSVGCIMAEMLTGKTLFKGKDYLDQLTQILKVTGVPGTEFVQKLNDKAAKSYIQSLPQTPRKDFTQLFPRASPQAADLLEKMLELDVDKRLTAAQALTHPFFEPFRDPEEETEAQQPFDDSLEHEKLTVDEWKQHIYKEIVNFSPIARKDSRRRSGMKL

[7] = target: Serine/threonine-protein kinase PAK 1 (Homo sapiens) (UniProt Q13153); experiment: PAK1 SGC Tm panel (DSF); details: for ΔTm: Compound concentration 10.0 uM
Chain of Serine/threonine-protein kinase PAK 1 (Homo sapiens) (Q13153 whole entry): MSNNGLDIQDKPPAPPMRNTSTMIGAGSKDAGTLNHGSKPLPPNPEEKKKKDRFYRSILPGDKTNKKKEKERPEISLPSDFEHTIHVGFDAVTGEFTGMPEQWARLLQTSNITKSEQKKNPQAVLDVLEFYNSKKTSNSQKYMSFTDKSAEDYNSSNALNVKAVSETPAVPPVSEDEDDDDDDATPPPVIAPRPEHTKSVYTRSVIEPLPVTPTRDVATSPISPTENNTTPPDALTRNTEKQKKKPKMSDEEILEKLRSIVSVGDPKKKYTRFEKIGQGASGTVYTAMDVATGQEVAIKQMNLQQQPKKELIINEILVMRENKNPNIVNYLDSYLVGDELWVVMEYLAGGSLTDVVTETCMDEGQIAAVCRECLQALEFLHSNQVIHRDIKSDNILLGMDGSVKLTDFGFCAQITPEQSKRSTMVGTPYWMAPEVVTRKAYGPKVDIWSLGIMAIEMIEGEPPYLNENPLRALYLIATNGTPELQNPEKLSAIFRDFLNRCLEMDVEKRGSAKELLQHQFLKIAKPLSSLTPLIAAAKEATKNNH

[8] = target: Serine/threonine-protein kinase pim-1 (Homo sapiens) (UniProt P11309); experiment: PIM1 SGC Tm panel (DSF); details: for ΔTm: Compound concentration 10.0 uM
Chain of Serine/threonine-protein kinase pim-1 (Homo sapiens) (P11309 whole entry, looked up): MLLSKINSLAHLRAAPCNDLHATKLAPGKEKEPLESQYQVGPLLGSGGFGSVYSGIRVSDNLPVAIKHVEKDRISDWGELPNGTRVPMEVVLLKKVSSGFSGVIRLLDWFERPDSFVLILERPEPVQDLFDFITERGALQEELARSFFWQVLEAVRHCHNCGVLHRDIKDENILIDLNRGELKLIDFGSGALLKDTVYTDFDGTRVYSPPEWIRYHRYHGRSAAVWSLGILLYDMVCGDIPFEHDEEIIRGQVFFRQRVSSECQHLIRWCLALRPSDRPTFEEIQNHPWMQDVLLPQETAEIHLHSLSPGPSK

[9] = target: Bromodomain-containing protein 4 (Homo sapiens) (UniProt O60885); experiment: BRD4 SGC Tm panel (DSF); details: for ΔTm: Compound concentration 10.0 uM
[10] = target: Serine/threonine-protein kinase WNK1 (Homo sapiens) (UniProt Q9H4A3); experiment: WNK1 SGC Tm panel (DSF); details: for ΔTm: Compound concentration 10.0 uM
[11] = target: T4, Ferrochelatase, mitochondrial (Homo sapiens) (UniProt P22830); experiment: FECH SGC Tm panel (DSF); details: for ΔTm: Compound concentration 10.0 uM
T4 sequence (whole entry): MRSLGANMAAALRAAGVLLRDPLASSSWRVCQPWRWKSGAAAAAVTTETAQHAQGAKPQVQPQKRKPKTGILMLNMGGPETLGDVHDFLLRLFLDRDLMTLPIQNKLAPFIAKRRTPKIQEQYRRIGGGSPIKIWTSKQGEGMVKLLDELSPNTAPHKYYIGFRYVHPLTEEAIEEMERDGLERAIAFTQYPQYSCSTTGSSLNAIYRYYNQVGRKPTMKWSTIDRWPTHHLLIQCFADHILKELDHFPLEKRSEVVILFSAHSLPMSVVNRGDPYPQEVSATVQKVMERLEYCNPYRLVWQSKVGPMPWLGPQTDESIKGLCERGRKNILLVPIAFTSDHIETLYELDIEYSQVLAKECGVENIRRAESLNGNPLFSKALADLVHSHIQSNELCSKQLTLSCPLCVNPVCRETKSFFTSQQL

[12] = target: 5-hydroxytryptamine receptor 1D (Homo sapiens) (UniProt P28221); details: Compound concentration 10.0 uM
[13] = target: Mu-type opioid receptor (Homo sapiens) (UniProt P35372); details: Compound concentration 10.0 uM
Chain of Mu-type opioid receptor (Homo sapiens) (P35372 whole entry): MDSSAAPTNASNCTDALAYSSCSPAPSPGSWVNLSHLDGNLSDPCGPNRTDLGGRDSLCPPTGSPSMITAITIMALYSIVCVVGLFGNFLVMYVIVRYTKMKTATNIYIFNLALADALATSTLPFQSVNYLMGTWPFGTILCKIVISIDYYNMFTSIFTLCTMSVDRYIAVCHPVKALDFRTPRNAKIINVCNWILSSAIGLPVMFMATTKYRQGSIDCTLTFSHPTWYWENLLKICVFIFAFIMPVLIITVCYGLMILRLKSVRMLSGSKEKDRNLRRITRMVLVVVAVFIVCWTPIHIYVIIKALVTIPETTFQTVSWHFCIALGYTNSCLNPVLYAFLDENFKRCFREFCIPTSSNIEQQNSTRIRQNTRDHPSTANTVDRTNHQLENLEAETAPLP

[14] = target: Muscarinic acetylcholine receptor M2 (Homo sapiens) (UniProt P08172); details: Compound concentration 10.0 uM
Chain of Muscarinic acetylcholine receptor M2 (Homo sapiens) (P08172 whole entry): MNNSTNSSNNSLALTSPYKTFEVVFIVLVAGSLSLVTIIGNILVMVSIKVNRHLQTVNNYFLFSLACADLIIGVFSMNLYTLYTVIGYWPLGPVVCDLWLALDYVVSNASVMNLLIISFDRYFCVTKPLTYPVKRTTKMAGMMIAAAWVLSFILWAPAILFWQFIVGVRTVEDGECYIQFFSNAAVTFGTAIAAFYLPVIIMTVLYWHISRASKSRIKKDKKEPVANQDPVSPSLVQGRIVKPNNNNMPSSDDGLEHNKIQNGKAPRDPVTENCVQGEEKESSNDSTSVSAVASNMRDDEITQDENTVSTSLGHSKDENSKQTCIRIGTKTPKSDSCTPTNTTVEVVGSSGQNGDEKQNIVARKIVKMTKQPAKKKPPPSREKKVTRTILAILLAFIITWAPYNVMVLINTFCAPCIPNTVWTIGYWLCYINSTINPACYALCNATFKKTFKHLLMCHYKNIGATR

[15] = target: Sigma non-opioid intracellular receptor 1 (Homo sapiens, UniProt Q99720); details: Compound concentration 10.0 uM
Chain of Sigma non-opioid intracellular receptor 1 (Q99720 whole entry): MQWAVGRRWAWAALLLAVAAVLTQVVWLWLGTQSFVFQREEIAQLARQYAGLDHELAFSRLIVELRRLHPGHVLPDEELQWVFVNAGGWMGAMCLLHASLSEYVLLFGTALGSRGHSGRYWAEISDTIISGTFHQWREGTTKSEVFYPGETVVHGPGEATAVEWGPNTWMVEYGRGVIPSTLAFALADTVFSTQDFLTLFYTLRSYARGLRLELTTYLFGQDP

Chain of AP2-associated protein kinase 1 (Homo sapiens) (Q2M2I8 whole entry, looked up): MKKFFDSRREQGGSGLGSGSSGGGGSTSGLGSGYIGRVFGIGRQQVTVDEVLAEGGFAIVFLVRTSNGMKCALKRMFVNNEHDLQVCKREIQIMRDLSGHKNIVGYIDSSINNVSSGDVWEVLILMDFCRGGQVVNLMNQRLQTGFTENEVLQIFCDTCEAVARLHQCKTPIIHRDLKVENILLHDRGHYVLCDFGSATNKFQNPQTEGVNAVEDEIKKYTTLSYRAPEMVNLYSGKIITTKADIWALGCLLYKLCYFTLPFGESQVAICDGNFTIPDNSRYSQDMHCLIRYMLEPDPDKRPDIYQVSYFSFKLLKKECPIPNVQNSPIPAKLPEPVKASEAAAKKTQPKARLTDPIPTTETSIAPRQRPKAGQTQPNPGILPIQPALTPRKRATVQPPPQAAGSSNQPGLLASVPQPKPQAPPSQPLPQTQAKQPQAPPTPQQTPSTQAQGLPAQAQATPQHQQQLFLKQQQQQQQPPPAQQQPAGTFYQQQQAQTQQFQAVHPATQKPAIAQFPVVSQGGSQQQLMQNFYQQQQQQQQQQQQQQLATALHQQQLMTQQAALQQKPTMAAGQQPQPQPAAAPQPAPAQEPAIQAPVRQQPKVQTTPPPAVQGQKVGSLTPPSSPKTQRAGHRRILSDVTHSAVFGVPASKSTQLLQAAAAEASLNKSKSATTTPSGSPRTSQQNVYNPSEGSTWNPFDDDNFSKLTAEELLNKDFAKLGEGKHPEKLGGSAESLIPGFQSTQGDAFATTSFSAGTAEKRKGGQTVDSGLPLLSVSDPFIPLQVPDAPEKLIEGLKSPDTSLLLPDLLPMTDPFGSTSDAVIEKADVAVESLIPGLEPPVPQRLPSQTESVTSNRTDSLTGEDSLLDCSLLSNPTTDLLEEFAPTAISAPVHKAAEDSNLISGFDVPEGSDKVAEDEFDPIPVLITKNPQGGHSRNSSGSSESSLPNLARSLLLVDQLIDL
Chain of Sodium-dependent dopamine transporter (Q01959 whole entry): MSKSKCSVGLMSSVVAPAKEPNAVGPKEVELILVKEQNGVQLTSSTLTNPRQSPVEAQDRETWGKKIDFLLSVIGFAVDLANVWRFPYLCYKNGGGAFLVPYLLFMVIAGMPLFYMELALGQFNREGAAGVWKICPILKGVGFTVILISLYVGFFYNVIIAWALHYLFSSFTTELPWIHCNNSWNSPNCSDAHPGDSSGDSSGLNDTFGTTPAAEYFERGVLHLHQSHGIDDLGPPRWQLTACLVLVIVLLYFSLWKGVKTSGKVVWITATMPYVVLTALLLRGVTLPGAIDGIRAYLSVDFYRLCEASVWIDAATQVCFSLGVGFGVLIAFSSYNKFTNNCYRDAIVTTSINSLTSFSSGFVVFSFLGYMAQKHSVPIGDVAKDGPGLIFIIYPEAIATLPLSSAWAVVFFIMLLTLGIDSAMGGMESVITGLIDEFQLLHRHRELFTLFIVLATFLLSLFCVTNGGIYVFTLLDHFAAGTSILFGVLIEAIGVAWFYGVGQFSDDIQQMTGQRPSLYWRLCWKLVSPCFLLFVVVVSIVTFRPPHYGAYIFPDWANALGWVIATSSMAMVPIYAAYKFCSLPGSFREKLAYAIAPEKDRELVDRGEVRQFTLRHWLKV

COC[C@H](NC(=O)c1ccn(S(C)(=O)=O)c1)C(=O)Nc1nc(-c2cccc(-c3ccn(C)n3)c2)cs1
Ki [1]: > 10 µM | pKi [1]: < 5 | delta Tm Staurosporine positive control [2]: 11.6 | ΔTm [2]: -0.00871 | delta Tm Staurosporine positive control [3]: 9.19 | ΔTm [3]: -0.136 | delta Tm Staurosporine positive control [4]: 8.8 | ΔTm [4]: -1.35 | delta Tm Staurosporine positive control [5]: 12.1 | ΔTm [5]: 1.51 | delta Tm Staurosporine positive control [6]: 6.96 | ΔTm [6]: 0.221 | delta Tm Staurosporine positive control [7]: 7.66 | ΔTm [7]: -0.233 | delta Tm Staurosporine positive control [8]: 11.9 | ΔTm [8]: -0.353 | delta Tm Staurosporine positive control [9]: 1.03 | ΔTm [9]: -0.843 | delta Tm Staurosporine positive control [10]: 0.638 | ΔTm [10]: 0.232 | delta Tm Staurosporine positive control [11]: 1.69 | ΔTm [11]: 0.0581 | inhibition [12]: 16.7% | inhibition [13]: 18.8% | inhibition [14]: 6.19% | inhibition [15]: 1.62%

C[C@H](NC(=O)c1cn(C2(C#N)CC2)cn1)C(=O)Nc1nc(-c2cccc(-c3ccn(C)n3)c2)cs1
Ki [1]: > 10 µM | pKi [1]: < 5 | delta Tm Staurosporine positive control [2]: 11.6 | ΔTm [2]: 0.0243 | delta Tm Staurosporine positive control [3]: 9.19 | ΔTm [3]: 0.0306 | delta Tm Staurosporine positive control [4]: 8.8 | ΔTm [4]: -0.371 | delta Tm Staurosporine positive control [5]: 12.1 | ΔTm [5]: 1.65 | delta Tm Staurosporine positive control [6]: 6.96 | ΔTm [6]: 0.161 | delta Tm Staurosporine positive control [7]: 7.66 | ΔTm [7]: 0.443 | delta Tm Staurosporine positive control [8]: 11.9 | ΔTm [8]: -0.391 | delta Tm Staurosporine positive control [9]: 1.03 | ΔTm [9]: -0.303 | delta Tm Staurosporine positive control [10]: 0.638 | ΔTm [10]: 0.361 | delta Tm Staurosporine positive control [11]: 1.69 | ΔTm [11]: -0.558 | inhibition [12]: 36% | inhibition [13]: 8.54% | inhibition [14]: 16.3% | inhibition [15]: 83.2%
